# Experimental data: patent US9000050B2, “SHIP1 modulators and related methods” (The University of British Columbia, priority 2010, dated 2015)
# Target: T1, His-hSHIP1 enzyme (Homo sapiens, UniProt Q92835)
# T1 construct: His
# T1 sequence (Q92835 1-1189): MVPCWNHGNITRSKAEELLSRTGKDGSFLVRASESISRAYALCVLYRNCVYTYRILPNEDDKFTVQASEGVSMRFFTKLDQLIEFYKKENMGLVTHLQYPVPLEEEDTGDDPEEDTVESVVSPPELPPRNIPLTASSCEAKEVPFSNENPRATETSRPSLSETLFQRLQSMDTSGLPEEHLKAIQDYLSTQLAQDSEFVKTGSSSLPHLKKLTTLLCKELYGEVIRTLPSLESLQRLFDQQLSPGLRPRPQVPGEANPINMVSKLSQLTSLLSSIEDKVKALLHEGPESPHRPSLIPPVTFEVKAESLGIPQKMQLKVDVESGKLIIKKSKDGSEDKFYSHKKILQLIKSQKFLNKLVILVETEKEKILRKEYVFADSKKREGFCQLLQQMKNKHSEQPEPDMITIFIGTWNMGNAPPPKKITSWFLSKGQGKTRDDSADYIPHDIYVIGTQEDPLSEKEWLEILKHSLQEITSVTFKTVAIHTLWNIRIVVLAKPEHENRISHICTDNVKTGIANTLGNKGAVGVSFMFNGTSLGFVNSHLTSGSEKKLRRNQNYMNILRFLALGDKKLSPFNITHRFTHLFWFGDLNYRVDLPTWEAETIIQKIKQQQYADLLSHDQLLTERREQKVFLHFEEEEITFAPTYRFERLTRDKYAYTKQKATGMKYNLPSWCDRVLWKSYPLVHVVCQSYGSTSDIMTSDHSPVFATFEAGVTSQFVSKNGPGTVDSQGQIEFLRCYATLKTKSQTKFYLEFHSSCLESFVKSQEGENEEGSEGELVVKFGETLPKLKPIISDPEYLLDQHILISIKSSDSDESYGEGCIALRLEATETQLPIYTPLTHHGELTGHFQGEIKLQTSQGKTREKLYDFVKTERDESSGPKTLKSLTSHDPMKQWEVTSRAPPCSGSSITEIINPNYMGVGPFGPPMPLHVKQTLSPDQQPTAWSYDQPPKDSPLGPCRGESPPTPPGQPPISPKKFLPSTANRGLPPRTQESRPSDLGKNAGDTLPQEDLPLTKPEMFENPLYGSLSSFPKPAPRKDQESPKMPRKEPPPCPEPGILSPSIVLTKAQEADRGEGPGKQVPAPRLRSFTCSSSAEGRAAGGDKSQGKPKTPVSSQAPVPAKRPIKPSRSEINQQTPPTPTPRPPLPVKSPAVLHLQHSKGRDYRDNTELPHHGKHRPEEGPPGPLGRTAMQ
# Experiment: His-hSHIP1 enzyme activation assay (IP4 substrate, Biomol Green phosphate release)
# Assay type: biochemical
# Conditions: percentage increase relative to background; concentrations ≦300 μM
# Method: Test compounds are dissolved in 95% ethanol to form stock solutions. Before screening, the stock solutions are diluted with Phosphatase Assay Buffer (20 mM Tris-HCL, 10 mM MgCl2 pH 7.5, 0.02% Tween 20) to form working assay solutions that contain 10% ethanol. The assay is carried out on 96-well microtiter plates using a modified procedure of that reported by Ong et al., Blood 110, 1942-1949, 2007 and Yang et al., Org Lett 7, 1073-1076, 2005, both of which references are incorporated herein by reference in their entirety.
# Each reaction contains 5 μL of His-hSHIP1 enzyme (15-20 ng), 10 μL of the substrate, 1,3,4,5-inositol tetrakisphosphate (IP4; 50 μM final), 5 μL of Phosphatase Assay Buffer, and 5 μL of test compound at various concentrations in 10% ethanol (0-300 μM final). Control blanks are also prepared by replacing His-hSHIP1 enzyme, IP4, or test compounds with Phosphatase Assay Buffer. After adding the reaction components in a 96-well microtiter plate on ice, the reaction is mixed by briefly shaking the plate vigorously. The reaction is then incubated at 37° C. for 15 min with gentle shaking followed by addition of 100 μL of Biomol Green Reagent (BIOMOL, PA, USA) to terminate the reaction. The free phosphate released from IP4 by His-hSHIP1 binds to the Biomol Green Reagent, which turns the dye to green color. After incubating the mixture for 20 min at room temperature for color development, the absorbance is read with SpectraMax Plus 96-well plate reader (Molecular Devices, Sunnyvale, Calif., USA) at a wavelength of 650 nm.
# Percent (%) activation in Table 2 is expressed as a percentage increase relative to background. Scoring is expressed as follows: +(<25%); ++(≧25% but <50%); +++(≧50%).
row,SMILES,"Activation of His-hSHIP1 Enzyme, Scoring (percent activation)"
1,CC1(C)[C@@H](N)CC[C@]2(C)[C@H]3Cc4cc(O)cc(O)c4[C@]3(C)CC[C@@H]12 [Compound 9b],+ (<25%)
2,CC1(C)[C@H](O)CC[C@]2(C)[C@@H]1CC[C@]1(C)c3c(O)cc(O)cc3C[C@@H]21 (racemic) [16a/16b],++ (≧25% but <50%)
3,COc1cc(C)c2c(c1)C[C@H]1[C@]3(C)CC[C@@H](O)C(C)(C)[C@H]3CC[C@]21C (racemic) [17a/17b],++ (≧25% but <50%)
4,CC1(C)C(=O)CC[C@]2(C)[C@@H]1CC[C@]1(C)c3c(O)cc(O)cc3C[C@@H]21 (racemic) [7a/7b],+++ (≧50%)
5,Cc1cc(O)cc2c1[C@@]1(C)CC[C@@H]3C(C)(C)C(=O)CC[C@@]3(C)[C@@H]1C2 (racemic) [19a/19b],++ (≧25% but <50%)
6,"CC1(C)[C@H]2CC[C@]3(C)c4c(O)cc(O)cc4C[C@H]3[C@]2(C)CC[C@@H]1N.Cl [8a•HCl, (3S,4aS,6aS,11aS,11bS)-3-Amino-4,4,6a,11b-tetramethyl-2,3,4,4a,5,6,6a,11,11a,11b-decahydro-1H-benzo[a]fluorene-7,9-diol Hydrochloride]",+ (<25%)
7,COc1cc2c(c(OC)c1)[C@@]1(C)CC[C@@H]3C(C)(C)[C@H](O)CC[C@@]3(C)[C@@H]1C2 (racemic) [5a/5b],++ (≧25% but <50%)

# System: not listed separately
# Experiment: Water solubility (24 h stirring in deionized water, HPLC)
# Assay type: physicochemical
# Conditions: thermodynamic from solid, stirred 24 hours, read-out: Soluble Concentration
# Method: Samples are weighed accurately in duplicate (˜3 mg each) in 4 mL glass vials. The appropriate amount of deionized water is added to obtain a final concentration of 6 mg/mL. A stir bar is placed in the vial and the two mixtures are stirred for 24 hours, after which the samples are filtered using a glass filter membrane. The resulting filtrate is centrifuged in a glass conical tube for 10 minutes at 10,000 rpm to sediment any precipitate that may have passed through the glass membrane. The supernatant is sampled for HPLC analysis. The concentration of the test compound is determined by HPLC using a six-point standard curve of the compound prepared in methanol.
row,SMILES,solubility at 24 h [µg/mL]
1,"CC1(C)[C@@H](O)CC[C@]2(C)[C@H]3Cc4cc(O)cc(O)c4[C@]3(C)CC[C@@H]12 [Compound 16b, (3S,4aR,6aR,11aR,11bR)-2,3,4,4a,5,6,6a,11,11a,11b-decahydro-4,4,6a,11b-tetramethyl-1H-benzo[a]fluorene-3,7,9-triol]",133
2,"CC1(C)[C@H]2CC[C@]3(C)c4c(O)cc(O)cc4C[C@H]3[C@]2(C)CC[C@@H]1N.Cl [8a•HCl, (3S,4aS,6aS,11aS,11bS)-3-Amino-4,4,6a,11b-tetramethyl-2,3,4,4a,5,6,6a,11,11a,11b-decahydro-1H-benzo[a]fluorene-7,9-diol Hydrochloride]",1400
